Assay results reported in PubChem BioAssay AID1918953 (Molecular Pharmacology Branch, DTP, NCI, 2023).

System: MDA-MB-231 complex spheroid viability
Assay: Anticancer human tumor MDA-MB-231/ATCC cell line growth inhibition;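 note: drug exposure lasted 7 days starting on day 3 of spheroid growth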
Settings: for IC50: curve of first compound; for viability, T/C: stronger effect = lower value
In short: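 Complex spheroids of tumor cells with HUVEC and human MSCs, exposed to iadademstat combined with other agents. Each agent tested in half-log steps from near clinical Cmax (else 10 microM top), DMSO ≤0.25%.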

[1] = second compound 0.1 µM, first compound 0.00316 µM
[2] = second compound 0.1 µM, first compound 0.01 µM
[3] = second compound 0.1 µM, first compound 0.0316 µM
[4] = second compound 0.1 µM, first compound 0.1 µM
[5] = second compound 0.1 µM, first compound 0.316 µM
[6] = second compound 0.1 µM, first compound 1 µM
[7] = second compound 0.316 µM, first compound 0.00316 µM
[8] = second compound 0.316 µM, first compound 0.01 µM
[9] = second compound 0.316 µM, first compound 0.0316 µM
[10] = second compound 0.316 µM, first compound 0.1 µM
[11] = second compound 0.316 µM, first compound 0.316 µM
[12] = second compound 0.316 µM, first compound 1 µM
[13] = second compound 1 µM, first compound 0.00316 µM
[14] = second compound 1 µM, first compound 0.01 µM
[15] = second compound 1 µM, first compound 0.0316 µM
[16] = second compound 1 µM, first compound 0.1 µM
[17] = second compound 1 µM, first compound 0.316 µM
[18] = second compound 1 µM, first compound 1 µM
[19] = second compound 3.16 µM, first compound 0.00316 µM
[20] = second compound 3.16 µM, first compound 0.01 µM
[21] = second compound 3.16 µM, first compound 0.0316 µM
[22] = second compound 3.16 µM, first compound 0.1 µM
[23] = second compound 3.16 µM, first compound 0.316 µM
[24] = second compound 3.16 µM, first compound 1 µM
[25] = second compound 10 µM, first compound 0.00316 µM
[26] = second compound 10 µM, first compound 0.01 µM
[27] = second compound 10 µM, first compound 0.0316 µM
[28] = second compound 10 µM, first compound 0.1 µM
[29] = second compound 10 µM, first compound 0.316 µM
[30] = second compound 10 µM, first compound 1 µM

O=C(C=Cn1cnc(-c2cc(C(F)(F)F)cc(C(F)(F)F)c2)n1)NNc1cnccn1 + NC1CC1c1ccc(-c2cccc(O)c2)cc1
IC50 (second compound 0.1 µM): < 3.16 nM | IC50 (second compound 0.316 µM): < 3.16 nM | IC50 (second compound 1 µM): < 3.16 nM | IC50 (second compound 3.16 µM): < 3.16 nM | IC50 (second compound 10 µM): < 3.16 nM | viability, T/C [1]: 27.7% | viability, T/C [2]: 27.4% | viability, T/C [3]: 13.1% | viability, T/C [4]: 5.67% | viability, T/C [5]: 4.44% | viability, T/C [6]: 5.61% | viability, T/C [7]: 28.6% | viability, T/C [8]: 27.3% | viability, T/C [9]: 13.2% | viability, T/C [10]: 5.36% | viability, T/C [11]: 5.11% | viability, T/C [12]: 5.35% | viability, T/C [13]: 25.6% | viability, T/C [14]: 25.4% | viability, T/C [15]: 14.6% | viability, T/C [16]: 4.77% | viability, T/C [17]: 4.77% | viability, T/C [18]: 4.71% | viability, T/C [19]: 27% | viability, T/C [20]: 25% | viability, T/C [21]: 13.6% | viability, T/C [22]: 5.37% | viability, T/C [23]: 6.01% | viability, T/C [24]: 4.79% | viability, T/C [25]: 22.5% | viability, T/C [26]: 17.5% | viability, T/C [27]: 14.9% | viability, T/C [28]: 5.78% | viability, T/C [29]: 6.15% | viability, T/C [30]: 7.13%

COc1cc(C2c3cc4c(cc3C(OC3OC5COC(C)OC5C(O)C3O)C3COC(=O)C23)OCO4)cc(OC)c1O (stereo not given) + NC1CCC(NC2CC2c2ccccc2)CC1
IC50 (second compound 0.1 µM): 153 nM | IC50 (second compound 0.316 µM): 146 nM | IC50 (second compound 1 µM): 130 nM | IC50 (second compound 3.16 µM): 85.3 nM | IC50 (second compound 10 µM): 47.5 nM | viability, T/C (second compound 0.1 µM, first compound 0.00949 µM): 93.9% | viability, T/C (second compound 0.1 µM, first compound 0.03 µM): 79.8% | viability, T/C (second compound 0.1 µM, first compound 0.0949 µM): 56.2% | viability, T/C (second compound 0.1 µM, first compound 0.3 µM): 41.6% | viability, T/C (second compound 0.1 µM, first compound 0.949 µM): 15.6% | viability, T/C (second compound 0.1 µM, first compound 3 µM): 8.25% | viability, T/C (second compound 0.316 µM, first compound 0.00949 µM): 98.8% | viability, T/C (second compound 0.316 µM, first compound 0.03 µM): 79.2% | viability, T/C (second compound 0.316 µM, first compound 0.0949 µM): 56.1% | viability, T/C (second compound 0.316 µM, first compound 0.3 µM): 40.7% | viability, T/C (second compound 0.316 µM, first compound 0.949 µM): 16.8% | viability, T/C (second compound 0.316 µM, first compound 3 µM): 9.41% | viability, T/C (second compound 1 µM, first compound 0.00949 µM): 91.1% | viability, T/C (second compound 1 µM, first compound 0.03 µM): 73.1% | viability, T/C (second compound 1 µM, first compound 0.0949 µM): 56% | viability, T/C (second compound 1 µM, first compound 0.3 µM): 37.6% | viability, T/C (second compound 1 µM, first compound 0.949 µM): 18.3% | viability, T/C (second compound 1 µM, first compound 3 µM): 10.5% | viability, T/C (second compound 3.16 µM, first compound 0.00949 µM): 79.6% | viability, T/C (second compound 3.16 µM, first compound 0.03 µM): 60.5% | viability, T/C (second compound 3.16 µM, first compound 0.0949 µM): 50.1% | viability, T/C (second compound 3.16 µM, first compound 0.3 µM): 38.2% | viability, T/C (second compound 3.16 µM, first compound 0.949 µM): 17.8% | viability, T/C (second compound 3.16 µM, first compound 3 µM): 13.3% | viability, T/C (second compound 10 µM, first compound 0.00949 µM): 59.5% | viability, T/C (second compound 10 µM, first compound 0.03 µM): 52.3% | viability, T/C (second compound 10 µM, first compound 0.0949 µM): 44.4% | viability, T/C (second compound 10 µM, first compound 0.3 µM): 33% | viability, T/C (second compound 10 µM, first compound 0.949 µM): 17.7% | viability, T/C (second compound 10 µM, first compound 3 µM): 14.4%

Nc1ncn(C2CC(O)C(CO)O2)c(=O)n1 (stereo not given) + NC1CCC(NC2CC2c2ccccc2)CC1
IC50 (second compound 0.1 µM): > 1000 nM | IC50 (second compound 0.316 µM): > 1000 nM | IC50 (second compound 1 µM): > 1000 nM | IC50 (second compound 3.16 µM): > 1000 nM | IC50 (second compound 10 µM): 283 nM | viability, T/C [1]: 94% | viability, T/C [2]: 94.1% | viability, T/C [3]: 92.3% | viability, T/C [4]: 81.3% | viability, T/C [5]: 71.7% | viability, T/C [6]: 60.4% | viability, T/C [7]: 98.2% | viability, T/C [8]: 96.7% | viability, T/C [9]: 92.8% | viability, T/C [10]: 86.3% | viability, T/C [11]: 66.8% | viability, T/C [12]: 62.7% | viability, T/C [13]: 96.9% | viability, T/C [14]: 94.5% | viability, T/C [15]: 89.2% | viability, T/C [16]: 71.5% | viability, T/C [17]: 67.4% | viability, T/C [18]: 63.9% | viability, T/C [19]: 86% | viability, T/C [20]: 84.1% | viability, T/C [21]: 79.2% | viability, T/C [22]: 72.8% | viability, T/C [23]: 59% | viability, T/C [24]: 54.9% | viability, T/C [25]: 67% | viability, T/C [26]: 65.5% | viability, T/C [27]: 63% | viability, T/C [28]: 55.4% | viability, T/C [29]: 45.2% | viability, T/C [30]: 45.1%
